# In patent US10647692B2, “Heterocycle-substituted bicyclic azole pesticides” (FMC Corporation, priority 2015, dated 2020):
# Tests used:
# Format in all cases: in vivo
# [1] = tested on: cotton melon aphid (Aphis gossypii (Glover)); test: Test B: control of cotton melon aphid, foliar spray on pre-infested cotton plant; details: 144 h, assessed after 6 days; for mortality at 50 ppm: sprayed at 50 ppm; for mortality at 250 ppm: sprayed at 250 ppm
# Protocol: (§1) Test compounds were formulated using a solution containing 10% acetone, 90% water and 300 ppm X-77® Spreader Lo-Foam Formula non-ionic surfactant containing alkylarylpolyoxyethylene, free fatty acids, glycols and isopropanol (Loveland Industries, Inc. Greeley, Colo., USA). The formulated compounds were applied in 1 mL of liquid through a SUJ2 atomizer nozzle with ⅛ JJ custom body (Spraying Systems Co. Wheaton, Ill., USA) positioned 1.27 cm (0.5 inches) above the top of each test unit. Test compounds were sprayed at the rates indicated, and each test was replicated three times.
# For evaluating control of cotton melon aphid (Aphis gossypii (Glover)) through contact and/or systemic means, the test unit consisted of a small open container with a 6-7-day-old cotton plant inside. This was pre-infested with 30-40 insects on a piece of leaf according to the cut-leaf method, and the soil of the test unit was covered with a layer of sand.
# Test compounds were formulated and sprayed at 250 and/or 50 ppm. After spraying, the test units were maintained in a growth chamber for 6 days at 19° C. and 70% relative humidity. Each test unit was then visually assessed for insect mortality.
# [2] = tested on: green peach aphid (Myzus persicae (Sulzer)); test: Test A: control of green peach aphid, foliar spray on pre-infested radish plant; details: 144 h, assessed after 6 days; for mortality at 50 ppm: sprayed at 50 ppm; for mortality at 250 ppm: sprayed at 250 ppm
# Protocol: as §1
# For evaluating control of green peach aphid (Myzus persicae (Sulzer)) through contact and/or systemic means, the test unit consisted of a small open container with a 12-15-day-old radish plant inside. This was pre-infested by placing on a leaf of the test plant 30-40 aphids on a piece of leaf excised from a culture plant (cut-leaf method). The aphids moved onto the test plant as the leaf piece desiccated. After pre-infestation, the soil of the test unit was covered with a layer of sand.
# Test compounds were formulated and sprayed at 250 and/or 50 ppm. After spraying of the formulated test compound, each test unit was allowed to dry for 1 hour and then a black, screened cap was placed on top. The test units were held for 6 days in a growth chamber at 19-21° C. and 50-70% relative humidity. Each test unit was then visually assessed for insect mortality.
# [3] = tested on: Western Flower Thrips (Frankliniella occidentalis); test: Test D: control of Western Flower Thrips, sprayed Soleil bean plant; details: held for 7 days
# Protocol: as §1
# For evaluating control of Western Flower Thrips (Frankliniella occidentalis) through contact and/or systemic means, the test unit consisted of a small open container with a 5-7-day-old Soleil bean plant inside.
# Test compounds were formulated and sprayed at 250 and/or 50 ppm. After spraying, the test units were allowed to dry for 1 hour, and then 22-27 adult thrips were added to the unit. A black, screened cap was placed on the top of each test unit, and the test units were held for 7 days at 25° C. and 45-55% relative humidity.
# [4] = tested on: sweetpotato whitefly (Bemisia tabaci (Gennadius)); test: Test E: control of sweetpotato whitefly, sprayed cotton plant infested with eggs; details: 312 h, assessed after 13 days; for mortality at 250 ppm: sprayed at 250 ppm
# Protocol: as §1
# For evaluating control of the sweetpotato whitefly (Bemisia tabaci (Gennadius)) through contact and/or systemic means, the test unit consisted of a small open container with a 12-14-day-old cotton plant inside. Prior to the spray application, both cotyledons were removed from the plant, leaving one true leaf for the assay. Adult whiteflies were allowed to lay eggs on the plant and then were removed from the test unit. Cotton plants infested with at least 15 eggs were submitted to the test for spraying.
# Test compounds were formulated and sprayed at 250 and/or 50 ppm. After spraying, the test units were allowed to dry for 1 hour. The cylinders were then removed, and the units were taken to a growth chamber and held for 13 days at 28° C. and 50-70% relative humidity. Each test unit was then visually assessed for insect mortality.
# [5] = tested on: potato leafhopper (Empoasca fabae); test: Test C: control of potato leafhopper, sprayed Soleil bean plant, post-infested; details: assessed after 6 days
# Protocol: as §1
# For evaluating control of potato leafhopper (Empoasca fabae) through contact and/or systemic means, the test unit consisted of a small open container with a 5-6-day-old Soleil bean plant (primary leaves emerged) inside. White sand was added to the top of the soil and one of the primary leaves was excised prior to application.
# Test compounds were formulated and sprayed at 250 ppm and/or 50 ppm. After spraying, the test units were allowed to dry for 1 h before they were post-infested with 5 potato leafhoppers (18-21-day-old adults). A black, screened cap was placed on the top of each test unit, and the test units were held for 6 days in a growth chamber at 24° C. and 70% relative humidity. Each test unit was then visually assessed for insect mortality.
SMILES,mortality at 50 ppm [1] [%],mortality at 50 ppm [2] [%],mortality at 250 ppm [1] [%],mortality at 250 ppm [2] [%],control efficacy (plant damage and/or mortality) ([3]; sprayed at 250 ppm),other results
"CSCCC(=O)c1cccc2nn(-c3cccnc3)cc12 [Compound 2, 3-(methylthio)-1-[2-(3-pyridinyl)-2H-indazol-4-yl]-1-propanone]",≥ 80,≥ 80,–,–,–,control efficacy (plant damage and/or mortality) ([3]; sprayed at 50 ppm): 40% or less plant damage and/or 100% mortality
CSCCC(=O)c1ccc2nn(-c3cccnc3)cc2c1 [Compound 31],–,–,–,–,–,control efficacy (plant damage and/or mortality) ([3]; sprayed at 50 ppm): 40% or less plant damage and/or 100% mortality
"COCNCCC(=O)c1ccc2nn(-c3cccnc3)cc2c1 [Compound 32, 3-(methoxymethylamino)-1-[2-(3-pyridinyl)-2H-indazol-5-yl]-1-propanone]",–,≥ 80,≥ 80,≥ 80,40% or less plant damage and/or 100% mortality,–
FC(F)(F)c1ccc(Oc2ccc3nn(-c4cccnc4)cc3c2)cc1 [Compound 35],–,–,–,–,40% or less plant damage and/or 100% mortality,–
"CC(C)NC(=O)Cc1ccc2nn(-c3cccnc3)cc2c1 [Compound 38, N-(1-methylethyl)-2-(3-pyridinyl)-2H-indazole-5-acetamide]",≥ 80,≥ 80,≥ 80,≥ 80,40% or less plant damage and/or 100% mortality,–
O=C(Cc1ccc2nn(-c3cccnc3)cc2c1)NCC(F)(F)F [Compound 41],–,–,–,–,40% or less plant damage and/or 100% mortality,–
"c1cnc(Oc2ccc3nn(-c4cccnc4)cc3c2)nc1 [Compound 42, 2-(3-pyridinyl)-5-(2-pyrimidinyloxy)-2H-indazole]",≥ 80,≥ 80,≥ 80,≥ 80,–,–
"O=C(NCC(F)(F)F)C(=O)c1ccc2nn(-c3cccnc3)cc2c1 [Compound 48, α-oxo-2-(3-pyridinyl)-N-(2,2,2-trifluoroethyl)-2H-indazole-5-acetamide]",–,≥ 80,≥ 80,≥ 80,–,–
"CC(C)COc1ccc2nn(-c3cccnc3)cc2c1 [Compound 54, 5-(2-methylpropoxy)-2-(3-pyridinyl)-2H-indazole]",≥ 80,≥ 80,≥ 80,≥ 80,–,mortality at 50 ppm ([4]; sprayed at 50 ppm): ≥ 50%; mortality at 250 ppm [4]: ≥ 50%
CC(C)NC(=O)Cc1ccc2nn(-c3cncc(F)c3)cc2c1 [Compound 56],–,–,–,–,–,control efficacy (mortality) ([5]; sprayed at 50 ppm): ≥ 80%; control efficacy (mortality) ([5]; sprayed at 250 ppm): ≥ 80%
"CC(C(=O)NCc1ncccn1)c1ccc2nn(-c3cccnc3)cc2c1 (stereo not drawn) [Compound 59, α-methyl-2-(3-pyridinyl)-N-(2-pyrimidinylmethyl)-2H-indazole-5-acetamide]",≥ 80,≥ 80,≥ 80,≥ 80,–,mortality at 250 ppm [4]: ≥ 50%
"CC(C(=O)NC(C)(C)C#N)c1ccc2nn(-c3cccnc3)cc2c1 (stereo not drawn) [Compound 85, N-(1-cyano-1-methylethyl)-α-methyl-2-(3-pyridinyl)-2H-indazole-5-acetamide]",≥ 80,≥ 80,≥ 80,≥ 80,–,mortality at 250 ppm [4]: ≥ 50%
